Data on four molecules can be found in patent US5922891A, “2-substituted 1,8-dihydroxy-9(10H)-anthracenone pharmaceuticals” (priority 1997, dated 1999).

For one data set, the target named is T1, 5-LO in bovine PMNL (Bos taurus, UniProt F1MQ78).
T1 construct: The purified PMNLs were suspended at a concentration of; endogenous in cells; host or cells: polymorphonuclear leukocytes isolated from bovine blood
T1 sequence (F1MQ78 1-674): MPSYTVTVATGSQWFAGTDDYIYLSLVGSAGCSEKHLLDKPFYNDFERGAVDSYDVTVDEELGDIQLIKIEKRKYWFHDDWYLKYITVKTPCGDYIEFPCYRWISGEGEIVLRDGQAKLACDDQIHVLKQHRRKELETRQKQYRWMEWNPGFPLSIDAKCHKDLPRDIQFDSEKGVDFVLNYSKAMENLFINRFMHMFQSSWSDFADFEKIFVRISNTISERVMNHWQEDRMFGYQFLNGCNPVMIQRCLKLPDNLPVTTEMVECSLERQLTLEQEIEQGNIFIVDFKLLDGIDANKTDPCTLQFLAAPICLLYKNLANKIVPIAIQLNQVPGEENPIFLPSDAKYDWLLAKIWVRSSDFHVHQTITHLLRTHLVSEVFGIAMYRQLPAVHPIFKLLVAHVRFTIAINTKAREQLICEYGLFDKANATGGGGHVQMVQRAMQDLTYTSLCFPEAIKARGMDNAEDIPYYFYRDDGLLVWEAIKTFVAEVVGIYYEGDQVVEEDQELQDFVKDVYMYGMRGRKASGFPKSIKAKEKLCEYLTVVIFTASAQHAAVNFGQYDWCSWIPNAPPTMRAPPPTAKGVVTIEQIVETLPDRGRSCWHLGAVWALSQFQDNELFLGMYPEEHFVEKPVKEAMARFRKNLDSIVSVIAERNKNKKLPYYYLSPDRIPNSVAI
Kind of data set: Inhibition of 5-lipoxygenase (5-HETE and LTB4 biosynthesis) in Ca-ionophore-stimulated bovine PMNL. Type of data set: cell-based. The settings on record: N = 3 or more.

The nature of data set [1]: Deoxyribose degradation as a measure of hydroxyl radical formation. Type of data set: biochemical. Particulars: 75 μM test compound; controls < 0.1.

A value given as a limit tells only on which side of the number the result lay.

In general, IC50 refers to the concentration that gives 50% inhibition. A high value points to a need for much substance. `COC(=O)CCCCc1ccc2c(c1O)C(=O)c1c(O)cccc1C2` [IVB, Methyl 5-(9,10-Dihydro-1,8-dihydroxy-9-oxo-2-anthracene)pentanoate]: the IC50 against 5-LO in bovine PMNL was above 30 µM. Moreover, in data set [1], the “DD (deoxyribose degradation, malondialdehyde released)” value (from here on “DD”) was 0.62 ± 0.03 μmol of MDA/mmol.

As for `COC(=O)CCCCCc1ccc2c(c1O)C(=O)c1c(O)cccc1C2` [VB, Methyl 6-(9,10-Dihydro-1,8-dihydroxy-9-oxo-2-anthracene) hexaonate], on 5-LO in bovine PMNL, the concentration for half-maximal inhibition (IC50) was above 30 µM. The “DD” value in data set [1] is recorded as 0.13 ± 0.02 μmol of MDA/mmol.

`CC(C(=O)N(C)O)c1ccc2c(c1O)C(=O)c1c(O)cccc1C2` (centres unmarked) [VIID, N-Hydroxy-N-methyl-2-(9,10-dihydro-1,8-dihydroxy-9-oxo-2-anthracene)propionamide] showed a concentration for half-maximal inhibition (IC50) against 5-LO in bovine PMNL of 4 µM. In addition, in data set [1], the “DD” value was 1.57 ± 0.16 μmol of MDA/mmol.

On 5-LO in bovine PMNL, `COC(=O)C(c1ccc2c(c1O)C(=O)c1c(O)cccc1C2)C(C)C` (centres unmarked) [VIIIB, Methyl 2-(9,10-Dihydro-1,8-dihydroxy-9-oxo-2-anthracene)-3-methylbutanoate] gave an IC50 above 30 µM. The “DD” value in data set [1] is on record as 0.54 ± 0.01 μmol of MDA/mmol.
